One series has as its target T1, human p38 kinase alpha (Homo sapiens, UniProt Q16539).
T1 construct: The coding region of the human p38a cDNA was obtained by PCR-amplification from RNA isolated from the human monocyte cell line THP.1; GST (N); made in house; host or cells: E. coli DH10B
Description: p38 Kinase Assay (in vitro; PHAS-I/32P-ATP format or EGFRP/33P-ATP format). Format: biochemical. The following applies: activated human p38 kinase alpha, 50 μM unlabeled ATP; table does not say which of the two assay formats. The procedure:
The coding region of the human p38a cDNA was obtained by PCR-amplification from RNA isolated from the human monocyte cell line THP.1. First strand cDNA was synthesized from total RNA as follows: 2 μg of RNA was annealed to 100 ng of random hexamer primers in a 10 μl reaction by heating to 70° C. for 10 minutes followed by 2 minutes on ice. cDNA was then synthesized by adding 1 μl of RNAsin (Promega, Madison Wis.), 2 μl of 50 mM dNTP's, 4 μl of 5×buffer, 2 μl of 100 mM DTT and 1 μl (200 U) of Superscript II™ […] reverse transcriptase. Random primer, dNTP's and Superscript™ reagents were all purchased from Life-Technologies, Gaithersburg, Mass. The reaction was incubated at 42° C. for 1 hour. Amplification of p38 cDNA was performed by aliquoting 5 μl of the reverse transcriptase reaction into a 100 μl PCR reaction containing the following: 80 μl dH2O, 2 μl 50 mM dNTP's, 1 μl each of forward and reverse primers (50 pmol/μl), 10 μl of 10× buffer and 1 μl Expand™ polymerase (Boehringer Mannheim). The PCR primers incorporated Bam HI sites onto the 5′ and 3′ end of the amplified fragment, and were purchased from Genosys. The forward and reverse primers were 5′-[…]-3′ and 5′[…]-3′, respectively. The PCR amplification was carried out in a DNA Thermal Cycler (Perkin Elmer) by repeating 30 cycles of 94° C. for 1 minute, 60° C. for 1 minute and 68° C. for 2 minutes. After amplification, excess primers and unincorporated dNTP's were removed from the amplified fragment with a Wizard™ PCR prep (Promega) and digested with Bam HI (New England Biolabs). The Bam HI digested fragment was ligated into BamHI digested pGEX 2T plasmid DNA (PharmaciaBiotech) using T-4 DNA ligase (New England Biolabs) as described by T. Maniatis, Molecular Cloning: A Laboratory Manual, 2nd ed. (1989). The ligation reaction was transformed into chemically competent E. coli DH10B cells purchased from Life-Technologies following the manufacturer's instructions. Plasmid DNA was isolated from the resulting bacterial colonies using a Promega Wizard™ miniprep kit. Plasmids containing the appropriate Bam HI fragment were sequenced in a DNA Thermal Cycler (Perkin Elmer) with Prism™ (Applied Biosystems Inc.). cDNA clones were identified that coded for both human p38a isoforms (Lee et al. Nature 372, 739). One of the clones which contained the cDNA for p38a-2 (CSBP-2) inserted in the cloning site of pGEX 2T, 3′ of the GST coding region was designated pMON 35802. The sequence obtained for this clone is an exact match of the cDNA clone reported by Lee et al. This expression plasmid allows for the production of a GST-p38a fusion protein.
Expression of Human p38a:
GST/p38a fusion protein was expressed from the plasmid pMON 35802 in E. coli, stain DH10B (Life Technologies, Gibco-BRL). Overnight cultures were grown in Luria Broth (LB) containing […] ampicillin. The next day, 500 ml of fresh LB was inoculated with 10 ml of overnight culture, and grown in a 2 liter flask at 37° C. with constant shaking until the culture reached an absorbance of 0.8 at 600 nm. Expression of the fusion protein was induced by addition of isopropyl b-D-thiogalactosidse (IPTG) to a final concentration of 0.05 mM. The cultures were shaken for three hours at room temperature, and the cells were harvested by centrifugation. The cell pellets were stored frozen until protein purification.
Purification of p38 Kinase-α:
All chemicals were from Sigma Chemical Co. unless noted. Twenty grams of E. coli cell pellet collected from five 1 L shake flask fermentations was resuspended in a volume of PBS (140 mM NaCl, 2.7 mM KCl, 10 mM Na2HPO4, 1.8 mM KH2PO4, pH 7.3) up to 200 ml. The cell suspension was adjusted to 5 mM DTT with 2 M DTT and then split equally into five 50 ml Falcon conical tubes. The cells were sonnicated (Ultrasonics model W375) with a 1 cm probe for 3×1 minutes (pulsed) on ice. […]

Series [1] relates to TNF-a (LPS-stimulated human peripheral blood mononuclear cells). The series can be described thus: TNF Cell Assay: LPS stimulation of human PBM cells, TNF-a by ELISA. It counts as cell-based. Particulars: PBMC, LPS 20 ng/ml, overnight 37° C., compound 10-0.41 μM. The procedure:
Method of Isolation of Human Peripheral Blood Mononuclear Cells:
Human whole blood was collected in Vacutainer tubes containing EDTA as an anticoagulant. A blood sample (7 ml) was carefully layered over 5 ml PMN Cell Isolation Medium (Robbins Scientific) in a 15 ml round bottom centrifuge tube. The sample was centrifuged at 450-500×g for 30-35 minutes in a swing out rotor at room temperature. After centrifugation, the top band of cells were removed and washed 3 times with PBS w/o calcium or magnesium. The cells were centrifuged at 400×g for 10 minutes at room temperature. The cells were resuspended in Macrophage Serum Free Medium (Gibco BRL) at a concentration of 2 million cells/ml.
LPS Stimulation of Human PBMS:
PBM cells (0.1 ml, 2 million/ml) were co-incubated with 0.1 ml compound (10-0.41 μM, final concentration) for 1 hour in flat bottom 96 well microtiter plates. Compounds were dissolved in DMSO initially and diluted in TCM for a final concentration of 0.1% DMSO. LPS (Calbiochem, 20 ng/ml, final concentration) was then added at a volume of 0.010 ml. Cultures were incubated overnight at 37° C. Supernatants were then removed and tested by ELISA for TNF-a and IL1-b. Viability was analyzed using MTS. After 0.1 ml supernatant was collected, 0.020 ml MTS was added to remaining 0.1 ml cells. The cells were incubated at 37° C. for 2-4 hours, then the O.D. was measured at […].

For series [2], the system named is TNF-α released by U937 cells (human histiocytic lymphoma cell line). The series can be described thus: U937 Cell Assay: LPS stimulation of TNF production by U937 cells, ELISA. Format: cell-based. Particulars: U-937, differentiated U937 cells, LPS 100 ng/ml, 4 hour incubation. The procedure: Maintenance and Differentiation of the U937 Human Histiocytic Lymphoma Cell Line:
U937 cells (ATCC) were propagated in RPMI 1640 containing 10% fetal bovine serum, 100 IU/ml penicillin, 100 μg/ml streptomycin, and 2 mM glutamine (Gibco). Fifty million cells in 100 ml media were induced to terminal monocytic differentiation by 24 hour incubation with 20 ng/ml phorbol 12-myristate 13-acetate (Sigma). The cells were washed by centrifugation (200×g for 5 min) and resuspended in 100 ml fresh medium. After 24-48 hours, the cells were harvested, centrifuged, and resuspended in culture medium at 2 million cells/ml.
LPS Stimulation of TNF Production by U937 Cells:
U937 cells (0.1 ml, 2 million/ml) were incubated with 0.1 ml compound (0.004-50 μM, final concentration) for 1 hour in 96 well microtiter plates. Compounds were prepared as 10 mM stock solutions in DMSO and diluted in culture medium to yield a final DMSO concentration of 0.1% in the cell assay. LPS (E. coli, 100 ng/ml final concentration) was then added at a volume of 0.02 ml. After 4 hour incubation at 37° C., the amount of TNF-α released in the culture medium was quantitated by ELISA. Inhibitory potency is expressed as IC50 (μM).
A general note: An ELISA detects its analyte on a solid surface through an enzyme-linked reagent.

T1 sequence (Q16539 whole entry): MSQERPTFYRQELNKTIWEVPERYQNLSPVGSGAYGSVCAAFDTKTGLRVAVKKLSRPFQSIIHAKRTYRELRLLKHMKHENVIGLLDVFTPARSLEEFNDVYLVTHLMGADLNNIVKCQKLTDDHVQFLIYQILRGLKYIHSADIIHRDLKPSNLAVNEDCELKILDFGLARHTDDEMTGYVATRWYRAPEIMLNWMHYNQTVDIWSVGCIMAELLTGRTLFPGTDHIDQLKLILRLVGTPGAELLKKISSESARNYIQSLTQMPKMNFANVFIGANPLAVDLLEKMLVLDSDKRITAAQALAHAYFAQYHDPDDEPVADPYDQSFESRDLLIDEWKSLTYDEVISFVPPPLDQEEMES

`Cc1cnn(-c2cccc(F)c2)c1-c1ccncc1` [Example 2]: the melting point – broadly, the temperature of the solid-liquid transition – came to 131.11 °C. For the same compound, the 50% inhibitory concentration (IC50) (usually the concentration that inhibits the measured activity by half) at human p38 kinase alpha came out at 37.2 µM. This compound showed a half-inhibitory concentration (IC50) in series [1] of 4 µM.
Consider `Cc1cnn(Cc2ccccc2)c1-c1ccncc1` [Example 4], for which the results for the IC50 (against human p38 kinase alpha; in series [1]) were > 100 µM and > 10 µM, respectively.
Turning to `Cc1ccc(-n2nc(C)cc2-c2ccnc(NCCO)c2)cc1` [Example 5], the melting point worked out at 148.2 °C. For the same compound, the IC50 at human p38 kinase alpha is 1.4 µM. Besides, the half-inhibitory concentration (IC50) in series [1] is 0.2 µM.
`Cc1ccc(-n2nc(C)cc2-c2ccnc(NCc3cccnc3)c2)cc1` [Example 6] came in with a melting point of 108.94 °C. Further, the IC50 against human p38 kinase alpha stood at 0.4 µM. In addition, the IC50 in series [1] was 1.5 µM.
The matching figures for `Cc1ccc(-n2nc(C)cc2-c2ccnc(NCc3ccccc3)c2)cc1` [Example 7]: 102.1 °C, 0.01 µM and 1.1 µM.
For `Cc1ccc(-n2nc(C)cc2-c2ccnc(N(C)C)c2)cc1` [Example 10], the 50% inhibitory concentration (IC50) on human p38 kinase alpha is > 100 µM; in series [1], > 10 µM.
In turn, `Cc1ccc(-n2nc(C)cc2-c2cccc(N)c2)cc1` [Example 14] yielded a melting point of 94.38 °C. The half-maximal inhibitory concentration (IC50) on human p38 kinase alpha is > 100 µM. Moreover, in series [1], the concentration for half-maximal inhibition (IC50) was > 10 µM.
Turning to `Cc1cccc(-n2nc(C)cc2-c2ccnc(NCc3ccccc3)c2)c1` [Example 19, 2-(Benzylamino)-4-[1-(3-methylphenyl)-3-methyl-1H-pyrazol-5-yl]pyridine], the figures for the IC50 (against human p38 kinase alpha; in series [1]) were 0.002 µM and 0.1 µM, respectively.
As for `Cc1cc(-c2ccnc(NCc3ccccc3)c2)n(-c2cccc(F)c2)n1` [Example 20, 2-(Benzylamino)-4-[1-(3-fluorophenyl)-3-methyl-1H-pyrazol-5-yl]pyridine], the melting point was in the range of 94 to 96 °C.
For the compound `Cc1cccc(-n2nc(C)cc2-c2ccnc(N)c2)c1` [Example 21, 2-Amino-4-[1-(3-methylphenyl)-3-methyl-1H-pyrazol-5-yl]pyridine], the melting point lay within 124 to 125 °C. This compound displayed an IC50 at human p38 kinase alpha of 0.35 µM. In series [1], this compound had a half-maximal inhibitory concentration (IC50) of 0.5 µM.
Turning to `Cc1cccc(-n2nc(C)cc2-c2ccnc(N(C)CCc3ccccc3)c2)c1` [Example 25, 2-(N-Methylphenylethylamino)-4-[1-(3-methylphenyl)-3-methyl-1H-pyrazol-5-yl]pyridine], the 50% inhibitory concentration (IC50) against human p38 kinase alpha came to 2.24 µM; in series [1], 0.8 µM.
The corresponding values for `Fc1ccc(-n2nccc2-c2ccnc(NCCc3ccccc3)c2)cc1` [Example 30, 2-(Phenylethylamino)-4-[1-(4-fluorophenyl)-1H-pyrazol-5-yl]pyridine] are 0.024 µM and 10 µM.
Turning to `Cc1cccc(-n2nc(C)cc2-c2ccnc(C(N)=O)c2)c1` [Example 33, {4-[1-(3-Methylphenyl)-3-methyl-1H-pyrazol-5-yl]}-2-pyridine-2-carboxamide], the melting point fell in the range of 193 to 195 °C. Besides, in series [1], the IC50 came to 5 µM.
In turn, `Cc1cc(-c2ccnc(C(N)=O)c2)n(-c2ccc(F)cc2)n1` [Example 34, {4-[1-(4-Fluorophenyl)-3-methyl-1H-pyrazol-5-yl]}pyridine-2-carboxamide] had a melting point of 168 to 170 °C. On human p38 kinase alpha, half-maximal inhibition (IC50) required 44 µM.
In turn, `Cc1cccc(-n2nc(C)cc2-c2ccnc(S(C)(=O)=O)c2)c1` [Example 36, 2-(Methylsulfonyl)-4-[1-(3-methylphenyl)-3-methyl-1H-pyrazol-5-yl]pyridine] had a melting point of 140 to 142 °C. Also, the IC50 against human p38 kinase alpha amounted to 29.9 µM. In series [1], the 50% inhibitory concentration (IC50) was > 10 µM.
For `Cc1cc(-c2ccnc(N=[N+]=[N-])c2)n(-c2cccc(F)c2)n1` [Example 37, {4-[1-(3-Fluorophenyl)-3-methyl-1H-pyrazol-5-yl]}pyridine-2-azide], the melting point lay in the range of 134 to 135 °C. This compound displayed a half-maximal inhibitory concentration (IC50) on human p38 kinase alpha of 85 µM. In series [1], this compound gave an IC50 of 2.2 µM.
Turning to `Cc1cc(-c2ccnc(NCc3cccnc3)c2)n(-c2cccc(F)c2)n1` [Example 38, 2-(3-Pyridylmethylamino)-4-[1-(3-fluorophenyl)-3-methyl-1H-pyrazol-5-yl]pyridine], the concentration for half-maximal inhibition (IC50) against human p38 kinase alpha stood at 0.219 µM; in series [1], 0.6 µM.
Regarding `CCCc1c[nH][n+](-c2cccc(F)c2)c1-c1ccncc1` [Example 39], the melting point fell in the range of 93 to 94 °C.
On to `CCc1c[nH][n+](-c2cccc(F)c2)c1-c1ccncc1` [Example 40], for which the melting point lay within 109 to 110 °C.
With `Cc1ccc(-n2nc(C)cc2-c2ccnc(Cl)c2)cc1` [Example 41, 2-chloro-4-[3-methyl-1-(4-methylphenyl)-1H-pyrazol-5-yl]pyridine], the melting point was 100.07 °C. The half-maximal inhibitory concentration (IC50) at human p38 kinase alpha was 14 µM. The same compound had an IC50 in series [1] of 2.9 µM.
`COC(=O)c1cnn(-c2ccc(F)cc2)c1-c1ccncc1` [Example 42, Methyl 1-(4-Fluorophenyl)-5-(4-pyridinyl)-1H-pyrazole-4-carboxylate]: the half-maximal inhibitory concentration (IC50) was 2.68 µM against human p38 kinase alpha and ≥ 10 µM in series [2].

For the origin of these results see US6509361B1, “1,5-Diaryl substituted pyrazoles as p38 kinase inhibitors” (Pharmacia Corporation, priority 2001, dated 2003).
